# US20230159445A1, “STAT INHIBITORY COMPOUNDS AND COMPOSITIONS” (JANPIX LIMITED, priority 2020, published 2023)
# How the values were obtained:
# MV4-11 cells = assay: MV4-11 Cell Cytotoxicity Assay (CellTiter-Blue, 72 h); type: cell-based, human; conditions: Homo sapiens, MV4-11; MV-4-11 cells
# How it was run: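 Cells seeded 24 h before treatment, then exposed 72 h at 37° C, 5% CO2 to inhibitors in triplicate, top concentration 50 μM with 1:2 serial dilutions (0.5% DMSO vehicle). Viability read by CellTiter-Blue fluorescence at 560/590 nm after 1 h.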
# [1] = tested on: normal human fibroblast (NHF) cells; assay: NHF Cell Cytotoxicity Assay (CellTiter-Blue, 72 h), off-target effects; type: cell-based; conditions: Homo sapiens, Fibroblast; pooled NHF cells
# Protocol: In some embodiments, the off-target effects of the compounds are evaluated in healthy human cells, such as in a normal human fibroblast (NHF) cell cytotoxicity assay.
# Cell viability was examined following treatment at various concentrations of inhibitor (0.097656-50 μM) using a cell Titer-Blue cell viability assay. 1×10^4 normal human fibroblast cells per well were plated in 96-well assay plates in culture medium. All cells are grown in DMEM, IMDM and RPMI-1640 were supplemented with 10% FBS. After 24 hours, test compounds and vehicle controls are added to appropriate wells so the final volume was 100 μl in each well. The cells are cultured for the desired test exposure period (72 hours) at 37° C. and 5% CO2. The assay plates are removed from 37° C. incubator and 20 μL/well of CellTiter-Blue® Reagent is added. The plates are incubated using standard cell culture conditions for 1-4 hours and the plates are shaken for 10 seconds and record fluorescence at 560/590nm. For each sample well, value is normalized between the DMSO control and the highest concentration in case of plateau, and converted into a percentage. In the absence of plateau, minimum lecture is obtained from a different sample within the same experiment. For each concentration, the four replicates are averaged and standard deviation calculated. Data is fitted to a log(inhibitor) vs response curve with variable slope model using Microsoft Excel, obtaining IC50 and Hill slope variables.
# A person skilled in the art would appreciate that a higher IC50 value in this NHF assay can indicate lower off-target effects.
# glutathione (GSH) = assay: Reactivity Profiling with Glutathione (GSH), half-life by HPLC; conditions: 5 mM glutathione (GSH) in IMDM with 10% FBS
Structure (SMILES),IC50 (MV4-11 cells),IC50 [1],half-life at 25 μM (glutathione (GSH))
"CC(C)(C)c1cc(CN(C(=O)CN(Cc2c(F)c(F)c(F)c(F)c2F)S(=O)(=O)c2c(F)c(F)c(F)c(F)c2F)c2ccc(C(=O)O)cc2OC2CC2)cc(C2CC2)c1 [Compound 1108, 4-(N-(3-(tert-butyl)-5-cyclopropylbenzyl)-2-(N-((perfluorophenyl)methyl)-(2,3,4,5,6-pentafluorophenyl)sulfonamido)acetamido)-3-cyclopropoxybenzoic acid]",0.01 to 316 nM,0.001 to 10 µM,554 to 100000 min
"CC(C)(C)c1cc(CN(C(=O)CN(Cc2ccccc2C(F)(F)F)S(=O)(=O)c2c(F)c(F)c(F)c(F)c2F)c2ccc(C(=O)O)cc2OC2CC2)cc(C2CC2)c1 [Compound 1111, 4-(N-(3-(tert-butyl)-5-cyclopropylbenzyl)-2-(N-(2-(trifluoromethyl)benzyl)-(2,3,4,5,6-pentafluoro-phenyl)sulfonamido)acetamido)-3-cyclopropoxybenzoic acid]",0.01 to 316 nM,30 to 100 µM,554 to 100000 min
"COc1cc(C(=O)O)ccc1N(Cc1cc(C2CC2)cc(C(C)(C)C)c1)C(=O)CN(Cc1cnccc1C(F)(F)F)S(=O)(=O)c1c(F)c(F)c(F)c(F)c1F [Compound 1116, 4-(N-(3-(tert-butyl)-5-cyclopropylbenzyl)-2-(N-((4-(trifluoromethyl)pyridin-3-yl)methyl)-(2,3,4,5,6-pentafluoro-phenyl)sulfonamido)acetamido)-3-methoxybenzoic acid]",0.01 to 316 nM,10 to 20 µM,142 to 247 min
"CC(C)(C)c1cc(CN(C(=O)CN(Cc2ncccc2C(F)(F)F)S(=O)(=O)c2c(F)c(F)c(F)c(F)c2F)c2ccc(C(=O)O)cc2OC2CC2)cc(C2CC2)c1 [Compound 1119, 4-(N-(3-(tert-butyl)-5-cyclopropylbenzyl)-2-(N-((3-(trifluoromethyl)pyridin-2-yl)methyl)-(2,3,4,5,6-pentafluoro-phenyl)sulfonamido)acetamido)-3-cyclopropoxybenzoic acid]",316 to 1000 nM,30 to 100 µM,247 to 554 min
"CC(C)(C)c1cc(CN(C(=O)CN(Cc2c(F)cc(F)cc2F)S(=O)(=O)c2c(F)c(F)c(F)c(F)c2F)c2ccc(C(=O)O)cc2OC2CC2)cc(C2CC2)c1 [Compound 1122, 4-(N-(3-(tert-butyl)-5-cyclopropylbenzyl)-2-(N-(2,4,6-trifluorobenzyl)-(2,3,4,5,6-pentafluoro-phenyl)sulfonamido)acetamido)-3-cyclopropoxybenzoic acid]",0.01 to 316 nM,10 to 20 µM,554 to 100000 min
"CC(C)(C)c1cc(CN(C(=O)CN(Cc2c(F)cc(F)cc2F)S(=O)(=O)c2c(F)c(F)c(F)c(F)c2F)c2ccc(C(=O)O)cc2C2CC2)cc(C2CC2)c1 [Compound 1123, 4-(N-(3-(tert-butyl)-5-cyclopropylbenzyl)-2-(N-(2,4,6-trifluorobenzyl)-(2,3,4,5,6-pentafluoro-phenyl)sulfonamido)acetamido)-3-cyclopropylbenzoic acid]",0.01 to 316 nM,0.001 to 10 µM,554 to 100000 min
O=C(O)c1ccc(N(Cc2cc(C3CC3)cc(C3CC3)c2)C(=O)CN(Cc2ccccc2C(F)(F)F)S(=O)(=O)c2c(F)c(F)c(F)c(F)c2F)c(OC2CC2)c1 [Compound 1141],0.01 to 316 nM,20 to 30 µM,247 to 554 min
"CC(C)(C)c1cc(CN(C(=O)CN(Cc2cnccc2C(F)(F)F)S(=O)(=O)c2c(F)c(F)c(F)c(F)c2F)c2ccc(C(=O)O)cc2OC2CC2)cc(C2CC2)c1 [Compound 1142, 4-(N-(3-(tert-butyl)-5-cyclopropylbenzyl)-2-(N-((4-(trifluoromethyl)pyridin-3-yl)methyl)-(2,3,4,5,6-pentafluoro-phenyl)sulfonamido)acetamido)-3-cyclopropoxybenzoic acid]",0.01 to 316 nM,20 to 30 µM,247 to 554 min
"COc1cc(C(=O)O)ccc1N(Cc1cc(C2CC2)cc(C(C)(C)C)c1)C(=O)CN(Cc1ccc(F)cc1Cl)S(=O)(=O)c1c(F)c(F)c(F)c(F)c1F [Compound 1143, 4-(N-(3-(tert-butyl)-5-cyclopropylbenzyl)-2-(N-(2-chloro-4-fluorobenzyl)-(2,3,4,5,6-pentafluorophenyl)sulfon-amido)acetamido)-3-methoxybenzoic acid]",0.01 to 316 nM,10 to 20 µM,247 to 554 min
"COc1cc(C(=O)O)ccc1N(Cc1cc(C2CC2)cc(C(C)(C)C)c1)C(=O)CN(Cc1c(F)cccc1F)S(=O)(=O)c1c(F)c(F)c(F)c(F)c1F [Compound 1145, 4-(N-(3-(tert-butyl)-5-cyclopropylbenzyl)-2-(N-(2,6-difluorobenzyl)-(2,3,4,5,6-pentafluorophenyl)sulfon-amido)acetamido)-3-methoxybenzoic acid]",0.01 to 316 nM,0.001 to 10 µM,142 to 247 min
"COc1cc(C(=O)O)ccc1N(Cc1cc(C2CC2)cc(C2CC2)c1)C(=O)CN(Cc1cnccc1C(F)(F)F)S(=O)(=O)c1c(F)c(F)c(F)c(F)c1F [Compound 1146, 4-(N-(3,5-dicyclopropylbenzyl)-2-(N-((4-(trifluoromethyl)pyridin-3-yl)methyl)-(2,3,4,5,6-pentafluoro-phenyl)sulfonamido)acetamido)-3-methoxybenzoic acid]",316 to 1000 nM,0.001 to 10 µM,0.1 to 142 min
"COc1cc(C(=O)O)ccc1N(Cc1cc(C2CC2)cc(C2CC2)c1)C(=O)CN(Cc1c(F)cc(F)cc1F)S(=O)(=O)c1c(F)c(F)c(F)c(F)c1F [Compound 1148, 4-(N-(3,5-dicyclopropylbenzyl)-2-(N-(2,4,6-trifluorobenzyl)-(2,3,4,5,6-pentafluoro-phenyl)sulfonamido)acetamido)-3-methoxybenzoic acid]",0.01 to 316 nM,0.001 to 10 µM,142 to 247 min
"O=C(O)c1ccc(N(Cc2cc(C3CC3)cc(C3CC3)c2)C(=O)CN(Cc2ncccc2C(F)(F)F)S(=O)(=O)c2c(F)c(F)c(F)c(F)c2F)c(OC2CC2)c1 [Compound 1164, 3-cyclopropoxy-4-(N-(3,5-dicyclopropylbenzyl)-2-(N-((3-(trifluoromethyl)pyridin-2-yl)methyl)-(2,3,4,5,6-pentafluoro-phenyl)sulfonamido)acetamido)benzoic acid]",316 to 1000 nM,20 to 30 µM,247 to 554 min
"COc1cc(C(=O)O)ccc1N(Cc1cc(C2CC2)cc(C2CC2)c1)C(=O)CN(Cc1ccc(F)cc1Cl)S(=O)(=O)c1c(F)c(F)c(F)c(F)c1F [Compound 1166, 4-(2-(N-(2-chloro-4-fluorobenzyl)-(2,3,4,5,6-pentafluorophenyl)sulfon-amido)-N-(3,5-dicyclopropylbenzyl)acetamido)-3-methoxybenzoic acid]",0.01 to 316 nM,0.001 to 10 µM,142 to 247 min
"O=C(O)c1ccc(N(Cc2cc(C3CC3)cc(C3CC3)c2)C(=O)CN(Cc2ccc(F)cc2Cl)S(=O)(=O)c2c(F)c(F)c(F)c(F)c2F)c(OC2CC2)c1 [Compound 1167, 4-(2-(N-(2-chloro-4-fluorobenzyl)-(2,3,4,5,6-pentafluorophenyl)sulfon-amido)-N-(3,5-dicyclopropylbenzyl)acetamido)-3-cyclopropoxybenzoic acid]",0.01 to 316 nM,10 to 20 µM,247 to 554 min
"O=C(O)c1ccc(N(Cc2cc(C3CC3)cc(C3CC3)c2)C(=O)CN(Cc2c(F)cc(F)cc2F)S(=O)(=O)c2c(F)c(F)c(F)c(F)c2F)c(OC2CC2)c1 [Compound 1178, 3-cyclopropoxy-4-(N-(3,5-dicyclopropylbenzyl)-2-(N-(2,4,6-trifluorobenzyl)-(2,3,4,5,6-pentafluoro-phenyl)sulfonamido)acetamido)benzoic acid]",0.01 to 316 nM,10 to 20 µM,247 to 554 min
"O=C(O)c1ccc(N(Cc2cc(C3CC3)cc(C3CC3)c2)C(=O)CN(Cc2c(F)c(F)c(F)c(F)c2F)S(=O)(=O)c2c(F)c(F)c(F)c(F)c2F)c(OC2CC2)c1 [Compound 1183, 3-cyclopropoxy-4-(N-(3,5-dicyclopropylbenzyl)-2-(N-((perfluorophenyl)methyl)-(2,3,4,5,6-pentafluoro-phenyl)sulfonamido)acetamido)benzoic acid]",0.01 to 316 nM,0.001 to 10 µM,554 to 100000 min
"CC(C)(C)c1cc(CN(C(=O)CN(Cc2cnccc2C(F)(F)F)S(=O)(=O)c2c(F)c(F)c(F)c(F)c2F)c2ccc(C(=O)O)cc2C2CC2)cc(C2CC2)c1 [Compound 1186, 4-(N-(3-(tert-butyl)-5-cyclopropylbenzyl)-2-(N-((4-(trifluoromethyl)pyridin-3-yl)methyl)-(2,3,4,5,6-pentafluoro-phenyl)sulfonamido)acetamido)-3-cyclopropylbenzoic acid]",0.01 to 316 nM,0.001 to 10 µM,142 to 247 min
